Measured values: US11578080B2, “Thienopyrimidones” (Boehringer Ingelheim International GmbH, priority 2019, dated 2023)

Experiments:
[1] = target: human TRPA1 ion channel (Homo sapiens (Human), UniProt O75762); assay: Assay A: TRPA1 assay (FLIPR calcium, AITC agonism, HEK293 over-expressing human TRPA1); assay type: cell-based; conditions: HEK293 over-expressing human TRPA1, AITC 10 μM, FLIPRtetra; read-out: hTRPA1 IC50
Description: A human HEK293 cell line over-expressing the human TRPA1 ion channel (Perkin Elmer, Product No. AX-004-PCL) was used as a test system for compound efficacy and potency. Compound activity was determined by measuring the effect of compounds on intracellular calcium concentration induced by AITC (Allylisothiocyanat) agonism in a FLIPRtetra system (Molecular Devices).
The cells were obtained as frozen cells in cryo-vials and stored until use at −150° C. Cells were grown in culture medium (MEM/EBSS medium with 10% FCS and 0.4 mg/ML Geneticin). […] For sub-culturing cells were detached from flasks by Versene. At the day before the assay, cells were detached, washed twice with medium (MEM/EBSS medium with 10% FCS) and 20000 cells in 20 μl/well were seeded to Poly D-Lysin biocoated 384-well plates (black, clear bottom, Cat. 356697) from Corning. Plates were incubated for 24 hours at 37° C./5% CO2 before use in the assay.
The test compounds were dissolved in 100% DMSO at a concentration of 10 mM and in a first step diluted in DMSO to a concentration of 5 mM, followed by serial dilution steps in 100% DMSO. Dilution factor and number of dilution steps may vary according to needs. Typically 8 different concentrations by 1:5 dilutions were prepared, further intermediate dilutions (1:20) of the substances were carried out with HBSS/HEPES buffer (1×HEPES, Cat. 14065 from Gibco, 20 mM HEPES, Cat. 83264 from SIGMA, 0.1% BSA Cat. 11926 from Invitrogen, pH 7,4
At the assay day cells were washed 3× with assay puffer, 20 μL buffer remained in the wells after washing. 10 μL Ca6 kit (Cat. R8191 MolecularDevices) loading buffer in HBSS/HEPES was added to the cells and the plates were incubated with lid for 120 minutes at […]. 10 μL of compound or controls in HBSS/HEPES buffer/5% DMSO from the intermediate dilution plate were carefully added to the wells. […] Finally 10 μL of the agonist AITC 50 μM dissolved in HBSS/HEPES buffer/0.05% DMSO (final concentration 10 μM) was added to the wells followed by an additional read on the FLIPRtetra device for 10 minutes. The area under the signal curve (AUC) after AITC addition was used for IC50/% inhibition calculations
Data Evaluation and Calculation:
Each assay microtiter plate contained wells with vehicle (1% DMSO) controls instead of compound as controls for AITC induced luminescence (100% CTL; high controls) and wells with vehicle controls without AITC as controls for non-specific changes in luminescence (0% CTL; low controls).
The analysis of the data was performed by the calculation of the area under signal curve of the individual wells. Based on this values the % value for the measurement of each substance concentration was calculated (AUC(sample)−AUC(low))*100/(AUC(high)−AUC(low)) using MegaLab software (in house development). The IC50 values were calculated from the % control values using MegaLab software. Calculation: [y=(a−d)/(1+(x/c)^b)+d], a=low value, d=high value; x=cone M; c=IC50 M; b=hill; y=% ctrl

[2] = Assay B: Microsomal clearance; assay type: in vitro ADME, human; conditions: pooled liver microsomes, 1 μM test compound, 37° C.
Description: Assay B: Microsomal Clearance:
The metabolic degradation of the test compound is assayed at 37° C. with pooled liver microsomes. The final incubation volume of 100 μl per time point contains TRIS buffer pH 7.6 at RT (0.1 M), magnesium chloride (5 mM), microsomal protein (1 mg/ml) and the test compound at a final concentration of 1 μM.
Following a short preincubation period at 37° C., the reactions are initiated by addition of beta-nicotinamide adenine dinucleotide phosphate, reduced form (NADPH, 1 mM) and terminated by transferring an aliquot into solvent after different time points (0, 5, 15, 30, 60 min). Additionally, the NADPH-independent degradation is monitored in incubations without NADPH, terminated at the last time point. The [%] remaining test compound after NADPH independent incubation is reflected by the parameter c(control) (metabolic stability). The quenched incubations are pelleted by centrifugation (10000 g, 5 min).
An aliquot of the supernatant is assayed by LC-MS/MS for the amount of parent compound. The half-life (t½ INVITRO) is determined by the slope of the semilogarithmic plot of the concentration-time profile.
The intrinsic clearance (CL_[…]) is calculated by considering the amount of protein in the incubation: CL_[…] [μl/min/mg protein]=(Ln 2/(half-life [min]*protein content [mg/ml]))*1000 CL_[…]_INVIVO [ml/min/kg]=(CL_[…] [μL/min/mg protein]×MPPGL [mg protein/g liver]×liver factor [g/kg body weight])/1000 Qh [%]=CL [ml/min/kg]/hepatic blood flow [ml/min/kg])
(§1) Hepatocellularity, human: 120×10e6 cells/g liver
(§2) Liver factor, human: 25.7 g/kg bodyweight
(§3) Blood flow, human: 21 ml/(min×kg)

[3] = Assay C: Hepatocyte clearance; assay type: in vitro ADME, human; conditions: hepatocyte suspension, 1 μM test compound
Description: Assay C: Hepatocyte Clearance
The metabolic degradation of the test compound is assayed in a hepatocyte suspension. Hepatocytes (cryopreserved) are incubated in. Dulbecco's modified eagle medium (supplemented with 3.5 μg glucagon/500 mL, 2.5 mg insulin/500 mL and 3.75 mg/500 mL hydrocortison) containing 5% or 50% species serum.
Following a 30 min preincubation in an incubator (37° C., 10% CO2) 5 μl of test compound solution (80 μM; from 2 mM in DMSO stock solution diluted 1:25 with medium) are added into 395 μl hepatocyte suspension (cell density in the range 0.25-5 Mio cells/mL depending on the species, typically 1 Mio cells/mL; final concentration of test compound 1 μM, final DMSO concentration 0.05%).
The cells are incubated for six hours (incubator, orbital shaker) and samples (25 μl) are taken at 0, 0.5, 1, 2, 4 and 6 hours. Samples are transferred into acetonitrile and pelleted by centrifugation (5 min). The supernatant is transferred to a new 96-deepwell plate, evaporated under nitrogen and resuspended.
Decline of parent compound is analyzed by HPLC-MS/MS
CLint is calculated as follows CL_[…]=Dose/AUC=(C0/CD)/(AUD+clast/k)×1000/60. CO: initial concentration in the incubation [μM], CD: cell density of vital cells [10e6 cells/mL], AUD: area under the data [μM×h], clast: concentration of last data point [μM], k: slope of the regression line for parent decline [h-1].
The calculated in vitro hepatic intrinsic clearance can be scaled up to the intrinsic in vivo hepatic Clearance and used to predict hepatic in vivo blood clearance (CL) by the use of a liver model (well stirred model). CL_[…]_INVIVO [ml/min/kg]=(CL_[…] [μL/min/10e6 cells]×hepatocellularity [10e6 cells/g liver]×liver factor [g/kg body weight])/1000 CL [ml/min/kg]=CL_[…]_INVIVO [ml/min/kg]×hepatic blood flow [ml/min/kg]/(CL_[…]_INVIVO [ml/min/kg]+hepatic blood flow [ml/min/kg]) Qh [%]=CL [ml/min/kg]/hepatic blood flow [ml/min/kg])
as §1, §2, §3

Chain of human TRPA1 ion channel (O75762 whole entry): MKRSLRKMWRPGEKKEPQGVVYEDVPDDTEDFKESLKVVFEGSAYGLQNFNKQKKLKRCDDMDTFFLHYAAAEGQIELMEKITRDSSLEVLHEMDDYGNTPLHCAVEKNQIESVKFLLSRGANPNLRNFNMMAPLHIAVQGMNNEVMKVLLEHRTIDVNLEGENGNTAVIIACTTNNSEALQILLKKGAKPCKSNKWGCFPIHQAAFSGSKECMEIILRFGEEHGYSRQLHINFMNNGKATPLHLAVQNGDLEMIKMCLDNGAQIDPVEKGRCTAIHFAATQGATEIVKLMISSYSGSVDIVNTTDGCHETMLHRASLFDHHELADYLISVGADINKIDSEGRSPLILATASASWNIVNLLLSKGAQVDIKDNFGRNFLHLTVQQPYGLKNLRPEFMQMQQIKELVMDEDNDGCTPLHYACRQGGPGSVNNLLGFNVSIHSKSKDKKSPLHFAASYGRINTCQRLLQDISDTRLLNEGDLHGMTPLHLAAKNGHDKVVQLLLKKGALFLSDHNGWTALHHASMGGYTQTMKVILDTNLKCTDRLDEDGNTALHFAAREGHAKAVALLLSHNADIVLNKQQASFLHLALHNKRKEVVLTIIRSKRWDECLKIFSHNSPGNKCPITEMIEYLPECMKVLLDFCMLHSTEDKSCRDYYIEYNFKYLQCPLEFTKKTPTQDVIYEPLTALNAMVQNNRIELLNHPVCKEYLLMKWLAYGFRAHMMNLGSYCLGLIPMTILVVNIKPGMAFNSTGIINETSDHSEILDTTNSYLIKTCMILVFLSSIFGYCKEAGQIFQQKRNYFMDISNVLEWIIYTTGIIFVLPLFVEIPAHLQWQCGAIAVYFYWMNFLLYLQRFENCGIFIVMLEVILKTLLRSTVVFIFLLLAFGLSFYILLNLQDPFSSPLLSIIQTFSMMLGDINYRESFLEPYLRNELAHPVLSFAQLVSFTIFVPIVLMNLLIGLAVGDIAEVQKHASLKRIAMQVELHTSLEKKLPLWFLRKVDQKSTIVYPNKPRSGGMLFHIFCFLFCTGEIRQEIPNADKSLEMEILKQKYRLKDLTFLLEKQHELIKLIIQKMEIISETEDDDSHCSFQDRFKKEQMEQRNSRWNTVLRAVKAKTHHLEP

## Cc1c(C(N)=O)sc2ncn(Cc3nnn(C[C@H](O)c4ccc(Cl)cc4)n3)c(=O)c12 [Example 1, 3-({2-[(2R)-2-(4-chlorophenyl)-2-hydroxyethyl]-2H-1,2,3,4-tetrazol-5-yl}methyl)-5-methyl-4-oxo-3H,4H-thieno[2,3-d]pyrimidine-6-carboxamide]
[1]
  IC50: 0.011 µM
[2]
  human LM [% Qh]: <23 % Qh
[3]
  human Hepatocytes [% Qh]: 12 % Qh

## Cc1c(C(N)=O)sc2ncn(Cc3nnn(C[C@H](O)c4ccc(Br)cc4)n3)c(=O)c12 [Example 2]
[1]
  IC50: 0.012 µM
[2]
  human LM [% Qh]: <23 % Qh
[3]
  human Hepatocytes [% Qh]: 13 % Qh

## Cc1c(C(N)=O)sc2ncn(Cc3nnn(C[C@H](O)c4cc5cc(Cl)ccc5o4)n3)c(=O)c12 [Example 3]
[1]
  IC50: 0.012 µM
[2]
  human LM [% Qh]: <23 % Qh
[3]
  human Hepatocytes [% Qh]: 40 % Qh

## Cc1c(C(N)=O)sc2ncn(Cc3nnn(C[C@H](O)c4ccc(Cl)s4)n3)c(=O)c12 [Example 4]
[1]
  IC50: 0.012 µM
[2]
  human LM [% Qh]: <23 % Qh
[3]
  human Hepatocytes [% Qh]: 7 % Qh

## Cc1c(C(N)=O)sc2ncn(Cc3nnn(C[C@H](O)c4ccc(F)c(F)c4)n3)c(=O)c12 [Example 5]
[1]
  IC50: 0.074 µM
[2]
  human LM [% Qh]: <23 % Qh

## CN1CCc2c(sc3ncn(Cc4nnn(C[C@H](O)c5ccc(Cl)cc5)n4)c(=O)c23)C1=O [Example 7]
[1]
  IC50: 0.016 µM
[2]
  human LM [% Qh]: 36 % Qh
[3]
  human Hepatocytes [% Qh]: 26 % Qh

## Cc1c(C(N)=O)sc2ncn(Cc3nnn(C[C@H](O)c4cc5ccc(Cl)cc5o4)n3)c(=O)c12 [Example 8]
[1]
  IC50: 0.015 µM
[2]
  human LM [% Qh]: 43 % Qh
[3]
  human Hepatocytes [% Qh]: 36 % Qh

## Cc1ccc([C@@H](O)Cn2nnc(Cn3cnc4sc(C(N)=O)c(C)c4c3=O)n2)cc1 [Example 9]
[1]
  IC50: 0.021 µM
[2]
  human LM [% Qh]: <23 % Qh
[3]
  human Hepatocytes [% Qh]: 16 % Qh

## Cc1c(C(N)=O)sc2ncn(Cc3nnn(C[C@H](O)c4ccc5c(c4)OCO5)n3)c(=O)c12 [Example 10]
[1]
  IC50: 0.028 µM
[2]
  human LM [% Qh]: <23 % Qh
[3]
  human Hepatocytes [% Qh]: 14 % Qh

## Cc1c(C(N)=O)sc2ncn(Cc3nnn(C[C@H](O)c4cc5cc(F)ccc5o4)n3)c(=O)c12 [Example 11]
[1]
  IC50: 0.025 µM
[2]
  human LM [% Qh]: <23 % Qh
[3]
  human Hepatocytes [% Qh]: 28 % Qh

## Cc1c(C(N)=O)sc2ncn(Cc3nnn(C[C@H](O)c4cc5ccc(F)cc5o4)n3)c(=O)c12 [Example 12]
[1]
  IC50: 0.017 µM
[2]
  human LM [% Qh]: <23 % Qh
[3]
  human Hepatocytes [% Qh]: 31 % Qh

## CNC(=O)c1sc2ncn(Cc3nnn(C[C@H](O)c4ccc(Cl)cc4)n3)c(=O)c2c1C [Example 13]
[1]
  IC50: 0.02 µM
[2]
  human LM [% Qh]: <23 % Qh
[3]
  human Hepatocytes [% Qh]: 9 % Qh

## CNC(=O)c1sc2ncn(Cc3nnn(C[C@H](O)c4ccc5c(c4)OCO5)n3)c(=O)c2c1C [Example 14]
[1]
  IC50: 0.076 µM
[2]
  human LM [% Qh]: <23 % Qh
[3]
  human Hepatocytes [% Qh]: 13 % Qh

## CNC(=O)c1sc2ncn(Cc3nnn(C[C@H](O)c4ccc(C)cc4)n3)c(=O)c2c1C [Example 15]
[1]
  IC50: 0.038 µM
[2]
  human LM [% Qh]: <23 % Qh
[3]
  human Hepatocytes [% Qh]: 18 % Qh

## CNC(=O)c1sc2ncn(Cc3nnn(C[C@H](O)c4ccc(Cl)s4)n3)c(=O)c2c1C [Example 16]
[1]
  IC50: 0.037 µM
[2]
  human LM [% Qh]: <23 % Qh
[3]
  human Hepatocytes [% Qh]: 17 % Qh

## O=C1NCCc2c1sc1ncn(Cc3nnn(C[C@H](O)c4ccc(Cl)s4)n3)c(=O)c21 [Example 17]
[1]
  IC50: 0.014 µM
[2]
  human LM [% Qh]: <23 % Qh
[3]
  human Hepatocytes [% Qh]: 22 % Qh

## O=C1NCCc2c1sc1ncn(Cc3nnn(C[C@H](O)c4cc5cc(Cl)ccc5o4)n3)c(=O)c21 [Example 18]
[1]
  IC50: 0.014 µM
[2]
  human LM [% Qh]: 32 % Qh
[3]
  human Hepatocytes [% Qh]: 48 % Qh

## O=C1NCCc2c1sc1ncn(Cc3nnn(C[C@H](O)c4cc5cc(F)ccc5o4)n3)c(=O)c21 [Example 19]
[1]
  IC50: 0.031 µM
[2]
  human LM [% Qh]: <23 % Qh
[3]
  human Hepatocytes [% Qh]: 26 % Qh

## Cc1ccc([C@@H](O)Cn2nnc(Cn3cnc4sc5c(c4c3=O)CCNC5=O)n2)cc1 [Example 20]
[1]
  IC50: 0.014 µM
[2]
  human LM [% Qh]: <23 % Qh
[3]
  human Hepatocytes [% Qh]: 28 % Qh

## N#Cc1ccc([C@@H](O)Cn2nnc(Cn3cnc4sc5c(c4c3=O)CCNC5=O)n2)s1 [Example 21]
[1]
  IC50: 0.08 µM
[2]
  human LM [% Qh]: 27 % Qh
[3]
  human Hepatocytes [% Qh]: 5 % Qh
